# Laboratory results as given in patent US20100137144A1, “METHOD AND MEANS FOR DETECTING AND/OR QUANTIFYING HIERARCHICAL MOLECULAR CHANGE OF A CELL IN RESPONSE TO AN EXTERNAL STIMULUS” (Eppendorf Array Technologies S.A., priority 2005, published 2010).
# “Also recorded” adds a separate entry of the source.
# What was measured:
# [1] = test system: AP1 (c-Jun), STAT1, Elk-1, p53, c-Myc, ATF2, NFATc1 and MEF2 in MCF7 cells; experiment: TF Chip MAPK microarray: activated transcription factors in stimulated MCF7 cells; assay type: cell-based, human
# [2] = test system: MCF7 cells; experiment: DualChip human breast cancer microarray: gene expression in stimulated MCF7 cells; assay type: cell-based; conditions: 24 h; for Number of genes whose expression level is modified: out of 210
# [3] = test system: AP1 (c-Jun), STAT1, Elk-1, p53, c-Myc, ATF2, NFATc1 and MEF2 in U937 cells; experiment: TF Chip MAPK microarray: activated transcription factors in stimulated U937 cells; assay type: cell-based, human; conditions: 1000 U/ml
# Protocol: They are stimulated at 10.10^6 cells/75 cm^2 flask with IFNγ (1000 U/ml) for 15 min and 24 h or left untreated.
# The activation of transcription factors is monitored on microarrays using the TF Chip MAPK kit from Eppendorf (Germany). The arrays contain double stranded DNA molecules as capture probes for the TF binding. The TF Chip MAPK allows the assay of AP1 (c-Jun), STAT1, Elk-1, p53, c-Myc, ATF2, NFATc1 and MEF2.
# A blocking step is performed in a Blocking Solution (TF Chip MAPK kit, Eppendorf, Germany) for 1 h at RT, followed by a washing step using the Washing Buffer A (TF Chip MAPK kit, Eppendorf, Germany). The nuclear extracts are prepared as described in WO 01/73115. They are diluted in the Sample Dilution Solution and Binding Solution (TF Chip MAPK kit, Eppendorf, Germany) and contacted with the arrays. Incubation is performed for one hour at room temperature and under agitation at 600 rpm. Samples are removed and microarrays are washed 3 times.
# A mix of primary antibodies (Primary Antibody Cocktail; TF Chip MAPK kit, Eppendorf, Germany), each specifically recognizing the activated form of a transcription factor to be detected and diluted in the Primary Antibody Solution (TF Chip MAPK kit, Eppendorf, Germany), is contacted with the microarrays for 1 h at RT, followed by 3 washing steps. Each microarray is then contacted with Cy3-labeled secondary antibodies under indirect light for 45 min at RT, followed by washing.
# Hybridization chambers are removed, and slides are rinsed with Washing Buffer B (TF Chip MAPK kit, Eppendorf, Germany) and dried. A fluorescence detection of signals is performed by scanning slides using a laser confocal scanner “ScanArray” (Packard, USA) at a resolution of 10 μm. Signals are analyzed using the TF Chip MAPK Data analysis software.
# The experiment was performed as described in example 1 with the cells being stimulated for 15 min and 24 h with IFNγ or IFNα at the same concentration (1000 U/ml).
# The assays were performed on the TF Chip MAPK kit and on the DualChip® human RNAi side effect (Eppendorf, Germany) as in example 1. Table 2 presents the ratios for the genes whose values were found quantitative as explained in example 1. However, we investigated further the genes which were found positive for the IFNα response. For these genes, we incorporated into the table the values for the genes determined as quantitative for IFNγ but also the values for two genes, SERPINB2 and IFIT2, which were found qualitative, and the values for 4 other genes for which the ratios were significant when a confidence interval of 90% rather than the normal 95% is considered. These values are presented for sake of completing the information on the comparison between the two treatments and are marked with an asterisk.
# [4] = test system: U937 cells; experiment: DualChip human RNAi side effect microarray: gene expression in stimulated U937 cells; assay type: cell-based; conditions: for Number of genes exclusively regulated by this interferon: from 89 significant genes
# Text: The DualChip® human RNAi side effect (Eppendorf, Germany) was used for assay of the changes in the gene expression.
# The microarray contains, in triplicates, capture probes to analyze the expression of 260 human genes. In order to evaluate the entire experiment, several positive and negative controls (for hybridization and detection) as well as special capture probes for normalization are included. The DualChip® consists of two microarrays on one slide that has already been framed with a hybridization frame.
# The instructions provided by the supplier were followed for the hybridization and the analysis of the results.
molecule,measurement,setting,value
"C[C@]12CC[C@@H]3c4ccc(O)cc4CC[C@H]3[C@@H]1CC[C@@H]2O [β-Estradiol, β-estradiol]","Activation state of c-Jun, ATF2, Elk-1 and STAT1","[1]; MCF7 cells, 1 μM",did not highlight any modification in the activation state
same,Activation of c-Myc,"[1]; MCF7 cells, 1 μM, 24 h, cells confluent",reduced
same,Activation of p53,"[1]; MCF7 cells, 1 μM, 24 h, cells confluent, possibly not specific to the treatment",triggered
same,Activation of c-Myc,"[1]; sub-confluent MCF7 cells, 1 μM, 4 h",fast activation
same,Number of genes whose expression level is modified,[2]; 1 μM,50 genes
IFNα,Activation of transcription factor STAT1,"[3]; 15 min, vs unstimulated cells",the only TF showing a specific signal in the treated cells
same,Number of genes exclusively regulated by this interferon,"[4]; 24 h, 1000 U/ml",6 genes
"IFNγ: interferon γ, used at 1000 U/ml as stimulus of U937 cells",Activation of transcription factor MEF2,[3],activated in IFNγ stimulated and non stimulated conditions
same,Activation of transcription factor STAT1,"[3]; 15 min, vs unstimulated cells",specifically activated; also recorded: fast activation; also recorded: the only TF showing a specific signal in the treated cells
same,Activation of transcription factor STAT1,[3]; 24 h,disappears after 24 h
same,"Activation of the 7 other transcription factors (AP1 (c-Jun), Elk-1, p53, c-Myc, ATF2, NFATc1, MEF2)",[3]; vs unstimulated cells,"None of the 7 other ones (AP1 (c-Jun), Elk-1, p53, c-Myc, ATF2, NFATc1 and MEF2) were activated"
same,Number of genes affected at the two stimulation times,[4]; 15 min and 24 h,Five
same,Differential expression of genes BAX and BCLX,[4]; 1000 U/ml,not found to be differentially expressed
same,Number of genes whose expression level varies significantly,"[4]; 1000 U/ml, 15 min and 24 h, quantitative analysis, 260 genes on array",81 genes
same,Expression level of gene FOS,"[4]; 1000 U/ml, 24 h",returned to a basal level
same,Number of genes exclusively regulated by this interferon,"[4]; 24 h, 1000 U/ml",62 genes
same,Number of genes specifically affected by a 15 min treatment,[4]; out of 81,4 genes
same,Number of genes specifically modified after a 24 h treatment,[4]; out of 81,72 genes
hydrogen peroxide [H2O2],"Activation state of c-Jun, Elk-1 and STAT1","[1]; MCF7 cells, 200 μM",did not highlight any modification in the activation state
same,"Activation of ATF2, c-Myc, MEF2 and NFATc1","[1]; MCF7 cells, 200 μM, 3 h",suppressed
same,Activation of transcription factor p53,"[1]; MCF7 cells, 200 μM, 3 h and 24 h",activation of p53
same,"Activation of ATF2, c-Myc, MEF2 and NFATc1","[1]; MCF7 cells, 200 μM, 24 h",restored to a basal level
same,"Regulation of genes p53, bcl-x and thrombospondin-1",[2]; 200 μM,not shown experimentally to be regulated
same,Number of apoptotic pathway genes affected (BAG and BAX),"[2]; 200 μM, of 9 on the array",2 genes
same,Number of genes whose expression level is modified,[2]; 200 μM,16 genes
same,"Expression ratio, gene BAG-1","[2]; 200 μM, vs untreated cells",1.65
same,"Expression ratio, gene BAX","[2]; 200 μM, vs untreated cells",1.86
same,"Expression ratio, gene CTSD","[2]; 200 μM, vs untreated cells",1.65
same,"Expression ratio, gene FOXM1","[2]; 200 μM, vs untreated cells",0.55
same,"Expression ratio, gene K-alpha-1","[2]; 200 μM, vs untreated cells",0.63
same,"Expression ratio, gene MCM7","[2]; 200 μM, vs untreated cells",0.57
same,"Expression ratio, gene MDM2","[2]; 200 μM, vs untreated cells",1.73
same,"Expression ratio, gene MKi67","[2]; 200 μM, vs untreated cells",0.56
same,"Expression ratio, gene MYBL2","[2]; 200 μM, vs untreated cells",0.53
same,"Expression ratio, gene Muc1","[2]; 200 μM, vs untreated cells",1.64
same,"Expression ratio, gene NIFU","[2]; 200 μM, vs untreated cells",1.53
same,"Expression ratio, gene ODC","[2]; 200 μM, vs untreated cells",0.61
same,"Expression ratio, gene PPP1CB","[2]; 200 μM, vs untreated cells",0.62
same,"Expression ratio, gene STMN1","[2]; 200 μM, vs untreated cells",0.54
same,"Expression ratio, gene TOB","[2]; 200 μM, vs untreated cells",1.63
same,"Expression ratio, gene p21 (CDKN1A)","[2]; 200 μM, vs untreated cells",3.26
